Laboratory results reported in patent US10639296B2, “Methods to mitigate injury from radiation exposure” (priority 2009, dated 2020).
Where two headings read alike, the source gives them in different places.

What was measured:
[1] = test system: mice; settings: total body dose of 8 Gy; Mozobil I.P. 5 mg/kg single injection days later
Protocol: We exposed mice to radiation, total body dose of 8 Gy at a rate of approximately 1 Gy per minute. Subsequently, days later, we administered Mozobil [I.P.] at 5 mg/kg dose as a single injection. We monitored the test mice for lethality.

[2] = test system: C57BL/6 mice; settings: for cutaneous injury (skin reaction): 5 mg/kg I.P. twice, one week after radiation and 48 hours later
Protocol: We exposed the legs of mice to 25 or 30 Gy radiation at a dose rate of approximately 5 Gy per minute. Subsequently, one week later, we administered Mozobil [LP.] at 5 mg/kg dose followed by another Mozobil administration [5 mg/kg, I.P.] 48 hours later. We monitored the test mice for lesions relating to skin damage.
Skin damage to the hind leg of C57BL/6 mice was measured using a semi-quantitative scale (TABLE ONE).

[3] = test system: TGF-beta; settings: 30 days after 30 Gy; 5 mg/kg I.P. on day 7 and 9 post-irradiation; vs 30 Gy alone
From the text: (§1) Cytokine concentrations were from multiple samples, n=3 or 4 from single mice: one control, one receiving radiation alone and one receiving combined drug and radiation.

[4] = test system: TNF-alpha; settings: 30 days after 30 Gy; 5 mg/kg I.P. on day 7 and 9 post-irradiation; vs 30 Gy alone
From the text: as §1

[5] = test system: C57BL/6 mice; settings: for Median survival: 5 mg/kg I.P.
[6] = test system: C57BL/6 mice; settings: 6.5 Gy TBI; 5 mg/kg 72 h after the radiation; 12 days after radiation exposure; n=8
[7] = test system: Balb/c mice; settings: 5 mg/kg i.p. 24 hours after 7 Gy
[8] = test system: mice; settings: data not shown
[9] = test system: dogs; settings: cited from earlier work
[10] = rapid peak and subsequent clearance; cited from earlier work
[11] = test system: hematopoietic stem cells; settings: cited from earlier work
[12] = test system: normal donors; settings: cited from earlier work
[13] = dogs after lethal dose of TBI, AMD-3100 mobilized peripheral blood mononuclear cells

Compound: c1cc(CN2CCCNCCNCCCNCC2)ccc1CN1CCCNCCNCCCNCC1 [plerixafor]
- survival (lethality) [1]: significantly enhanced
- cutaneous injury (skin reaction) ([2]; 25 Gy, to day 60): soon resolved completely
- cutaneous injury (skin reaction) ([2]; 30 Gy, approximately day 60): had some hair loss but were otherwise normal
- skin damage (lesions) ([2]; legs, 25 or 30 Gy, 5 mg/kg one week later and again 5 mg/kg I.P. 48 hours later): significantly reduced
- TGF-beta in irradiated skin [3]: significantly reduced
- TNF-alpha in irradiated skin [4]: significantly reduced
- Survival at 30 days ([5]; 5 mg/kg I.P. administered 24 h after radiation exposure): 0%
- Survival at 30 days ([5]; 5 mg/kg I.P. administered 48 h after radiation exposure): 14%
- Survival at 30 days ([5]; 5 mg/kg I.P. administered 72 h after radiation exposure): 69%
- Median survival ([5]; 48 h between radiation and drug): 18 days
- Median survival ([5]; 72 h between radiation and drug): > 30 days
- mitigation from TBI-induced lethality ([5]; given after total body irradiation): significant mitigation
- number of endogenous spleen colonies (mean) [6]: 47±9
- Median survival [7]: 18 days
- Leg contraction (percent leg extension relative to the unirradiated leg) [8]: significantly improved
- tolerability (adverse effects) ([9]; dog, in vivo): well tolerated without noticeable adverse effects
- Median days to neutrophil recovery [9, 13]: 9 days
- Median days to platelet recovery [9, 13]: 25 days
- lethality after total body irradiation ([9]; dogs): mitigates lethality
- clearance of the drug after injection [10]: ≤ 24 h
- mobilization of hematopoietic stem cells from the bone marrow to the bloodstream ([11]; mice, dogs, and humans): strong inducer
- G-CSF-induced mobilization of HPCs ([11]; mouse and human hematopoietic progenitor cells): synergistically augmented
- side effects of single-dose administration [12]: very minor
